This assay deals with T1, 5HT4 (Rattus norvegicus, UniProt Q62758).
T1 construct: 5HT4 Antagonism in Rat Oesophageal Tunica Muscularis Mucosae; from tissue; host or cells: rat oesophageal tunica muscularis mucosae
In words: 5HT4 antagonism in rat oesophageal tunica muscularis mucosae. The note with it: 5HT4 antagonistic data, isolated rat oesophageal tunica muscularis mucosae, method of Baxter et al.; for Kb: read-out: pA2 (converted). The format is cell-based. As to the method:
5HT4 Antagonism in Rat Oesophageal Tunica Muscularis Mucosae
The 5HT4 antagonistic potence of the present compounds was measured as described in Baxter G. S. et. al, Naunyn-Schmiedeberg's Arch. Pharmacol., 343, 439-446 ([…]).
The pA2 value is calculated as follows: [formula]

T1 sequence (Q62758 whole entry): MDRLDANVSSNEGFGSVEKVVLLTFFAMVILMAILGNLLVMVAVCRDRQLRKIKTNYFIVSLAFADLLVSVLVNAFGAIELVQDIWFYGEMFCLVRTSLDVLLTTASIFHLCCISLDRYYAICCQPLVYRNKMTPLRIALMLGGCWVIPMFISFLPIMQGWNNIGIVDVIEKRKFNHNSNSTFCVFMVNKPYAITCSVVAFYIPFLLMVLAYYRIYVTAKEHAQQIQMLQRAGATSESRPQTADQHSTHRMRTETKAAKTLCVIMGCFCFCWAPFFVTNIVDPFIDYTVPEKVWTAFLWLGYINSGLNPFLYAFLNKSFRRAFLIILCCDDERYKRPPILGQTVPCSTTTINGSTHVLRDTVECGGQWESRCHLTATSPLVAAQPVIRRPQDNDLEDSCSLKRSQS

Usually pA2 stands for a measure of antagonist potency on a negative log scale. A higher pA2 goes with a more potent antagonist. Consider `CC(=O)CCCN1CCC(O)(CNC(=O)c2cc(Cl)cc3c2OCCCO3)CC1.O` [Compound 180], for which the pA2 result is reported as “˜7.5”.
Molecule `Cl.O=C(NCC1CCN(CCOCCO)CC1O)c1cc(Cl)cc2c1OCCO2` (centres unmarked) [Compound 92] displayed a pA2 of 9.7.
As to `Cc1nccnc1NCCCN1CC[C@@H](CNC(=O)c2cc(Cl)cc3c2OCCO3)[C@H](O)C1` (racemic) [Compound 84, (±)-(trans)-7-chloro-2,3-dihydro-N-[[3-hydroxy-1-[3-[(3-methyl-2-pyrazinyl)amino]propyl]-4-piperidinyl]methyl]-1,4-benzodioxin-5-carboxamide], the Kb is 0.0282 nM.
Take `O=C(NCC1CCN(CCCOc2ccc(F)cc2)CC1O)c1cc(Cl)cc2c1OCCC2` (centres unmarked) [Compound 43]: the pA2 is given as 9.8.
As for `O=C(NCC1(O)CCN(CCOCCO)CC1)c1cc(Cl)cc2c1OCCO2.O=C(O)/C=C\C(=O)O` [Compound 107], the pA2 was under 8.
For `CC(=O)CCCN1CCC(O)(CNC(=O)c2cc(Cl)cc3c2OCCO3)CC1` [Compound 106], the pA2 is under 8.
`O=C(NCC1CCN(CCCO)CC1O)c1cc(Cl)cc2c1OCCC2` (centres unmarked) [Compound 39] came in with a pA2 of 9.81.
`CCCCN1CCC(CNC(=O)c2cc(Cl)cc3c2OCCCO3)C(OC)C1.O=C(O)C(=O)O` (centres unmarked) [Compound 130] displayed a pA2 of 8.5.
The molecule `Cl.O=C(O)CCCN1CCC(CNC(=O)c2cc(Cl)cc3c2OCCO3)C(O)C1` (centres unmarked) [Compound 94] registered a pA2 of 9.24.
In the case of `COCCCN1CCC(CNC(=O)c2cc(Cl)cc3c2OCC3)C(O)C1` (centres unmarked) [Compound 3], the pA2 is 8.07.
Still for that read-out and setting: under `O=C(NCC1CCN(Cc2ccccc2)CC1O)c1cc(Cl)cc2c1OCC2` (centres unmarked) [Compound 11] stands 8.76.
The same measure, in the same setting: for `O=C(CN1CCC(CNC(=O)c2cc(Cl)cc3c2OCCC3)C(O)C1)c1ccccc1.O=C(O)C(=O)O` (centres unmarked) [Compound 42] the value was 9.5; for `O=C(NCC1CCN(CCOCCO)CC1O)c1cc(Cl)cc2c1OCCC2.O=C(O)C(=O)O` (centres unmarked) [Compound 52], 9.5; for `CS(=O)(=O)CCCN1CCC(O)(CNC(=O)c2cc(Cl)cc3c2OCCO3)CC1` [Compound 103], under 8.
The same measure, in the same setting: under `COC(=O)CCCN1CCC(CNC(=O)c2cc(Cl)cc3c2OCC3)C(O)C1` (centres unmarked) [Compound 31] stands 9.4; under `CCCCN1CCC(CNC(=O)c2cc(Cl)cc3c2OCCO3)C(OC)C1.O=C(O)C(=O)O` (centres unmarked) [Compound 86], 8.2; under `CC(C)n1ccn(CCN2CCC(O)(CNC(=O)c3cc(Cl)cc4c3OCCO4)CC2)c1=O.O=C(O)C(=O)O` [Compound 116], “˜8”.
In turn, `COC1CN(Cc2ccccc2)CCC1CNC(=O)c1cc(Cl)cc2c1OCCCO2` (centres unmarked) [Compound 132] displayed a pA2 of 8.5.
In turn, `O=C(NCC1CCN(CCOCCO)CC1O)c1cc(Cl)cc2c1OCCCCO2` (centres unmarked) [Compound 190] registered a pA2 of 8.3.
The molecule `COCCCN1CCC(CNC(=O)c2cc(Cl)cc3c2OCCO3)C(O)C1.O=C(O)C(=O)O` (centres unmarked) [Compound 66] had a pA2 of 9.26.
Same read-out and setting: under `CCCCN1CCC(O)(CNC(=O)c2cc(Cl)cc3c2OCCO3)CC1.Cl` [Compound 100] stands under 8.
The molecule `N#CCCCN1CCC(O)(CNC(=O)c2cc(Cl)cc3c2OCCCO3)CC1.O=C(O)C(=O)O` [Compound 167] came in with a pA2 of under 8.
Regarding `CCCCN1CCC(CNC(=O)c2cc(Cl)cc3c2OCCCO3)C(O)C1` (centres unmarked) [Compound 119], the pA2 was 10.65.
For the molecule `COC1CN(CCCOc2ccc(F)cc2)CCC1CNC(=O)c1cc(Cl)cc2c1OCCO2.O=C(O)C(=O)O` (centres unmarked) [Compound 88], the pA2 is reported as 9.2.
Same read-out and setting: for `O=C(NCC1CCN(Cc2ccccc2)CC1O)c1cc(Cl)cc2c1OCCC2` (centres unmarked) [Compound 41] the value was 9.7; for `CCCCN1CCC(CNC(=O)c2cc(Cl)cc3c2OCCCCO3)C(O)C1.O` (centres unmarked) [Compound 182], 9.4.
In turn, `CCCCN1CCC(CNC(=O)c2cc(Cl)cc3c2OCCC3)C(O)C1` (centres unmarked) [Compound 36] displayed a pA2 of 9.8.
`O=C(NCC1CCN(CCCOc2ccc(F)cc2)CC1O)c1cc(Cl)cc2c1OCCO2` (centres unmarked) [Compound 79] gave a pA2 of 7.93.
As to `O=C(NCC1CCN(CCCOc2ccc(F)cc2)CC1O)c1cc(Cl)cc2c1OCCO2.O=C(O)C(=O)O` (centres unmarked) [Compound 80], the pA2 is 8.83.
`COC1CN(CCCC(C)=O)CCC1CNC(=O)c1cc(Cl)cc2c1OCCCO2.O=C(O)C(=O)O` (centres unmarked) [Compound 139] registered a pA2 of 8.6.
The molecule `N#CCCCN1CCC(CNC(=O)c2cc(Cl)cc3c2OCCO3)C(O)C1.O=C(O)C(=O)O` (centres unmarked) [Compound 74] showed a pA2 of 9.22.
`Cl.O=C(O)CCCN1CCC(CNC(=O)c2cc(Cl)cc3c2OCC3)C(O)C1` (centres unmarked) [Compound 32] yielded a pA2 of under 8.
As for `O=C(NC[C@@H]1CCN(CCNc2nccc(O)n2)C[C@H]1O)c1cc(Cl)cc2c1OCCO2` (relative stereo) [Compound 85, (trans)-7-chloro-2,3-dihydro-N-[[3-hydroxy-1-[2-[(4-hydroxy-2 pyrimidinyl)amino]-ethyl]-4-piperidinyl]methyl]-1,4-benzodioxin-5-carboxamide monohydrate], the Kb is 0.302 nM.
`N#CCCCN1CCC(CNC(=O)c2cc(Cl)cc3c2OCCCO3)C(O)C1` (centres unmarked) [Compound 126]: the pA2 is given as 9.78.
`O=C(NCC1CCN(Cc2ccccc2)CC1O)c1cc(Cl)cc2c1OCC2` (centres unmarked) [Compound 12] registered a pA2 of 10.2.
The molecule `O=C(NCC1CCN(CCCO)CC1O)c1cc(Cl)cc2c1OCCCCO2` (centres unmarked) [Compound 192] had a pA2 of 10.1. This pA2 and that of the molecule before are within 0.2 log units of each other.
Regarding `O=C(NCC1(O)CCN(CCC2OCCCO2)CC1)c1cc(Cl)cc2c1OCCO2` [Compound 117], the pA2 is under 8.
In turn, `CS(=O)(=O)NCCN1CCC(CNC(=O)c2cc(Cl)cc3c2OCC3)C(O)C1` (centres unmarked) [Compound 17] came in with a pA2 of 9.6.
Take `COC(=O)CCCN1CCC(CNC(=O)c2cc(Cl)cc3c2OCCO3)C(O)C1` (centres unmarked) [Compound 93]: the pA2 stood at 9.4.
For `CC(=O)CCCN1CCC(CNC(=O)c2cc(Cl)cc3c2OCCCO3)C(O)C1` (centres unmarked) [Compound 121], the pA2 is reported as 9.9.
The molecule `N#CCCCN1CCC(CNC(=O)c2cc(Cl)cc3c2OCCCCO3)C(O)C1.O=C(O)C(=O)O` (centres unmarked) [Compound 188] gave a pA2 of 10.5.
Same read-out and setting: for `Cl.O=C(O)CCCN1CCC(CNC(=O)c2cc(Cl)cc3c2OCCCCO3)C(O)C1` (centres unmarked) [Compound 194] the value was 9.
As for `COCCCN1CCC(CNC(=O)c2cc(Cl)cc3c2OCCO3)C(OC)C1.O=C(O)C(=O)O` (centres unmarked) [Compound 87], the pA2 was found to be 8.46.
Consider `O=C(NCC1CCN(CCOCCO)CC1O)c1cc(Cl)cc2c1OCC2` (centres unmarked) [Compound 29], for which the pA2 came out at 9.6.
The same measure, in the same setting: under `COC(=O)CCCN1CCC(CNC(=O)c2cc(Cl)cc3c2OCCC3)C(O)C1` (centres unmarked) [Compound 53] stands 9.5; under `CCCCN1CCC(CNC(=O)c2cc(Cl)cc3c2OCCCO3)C(OC)C1.O=C(O)C(=O)O` (centres unmarked) [Compound 131], 9.5; under `O=C(NCC1CCN(CCCOc2ccc(F)cc2)CC1O)c1cc(Cl)cc2c1OCC2` (centres unmarked) [Compound 13], 8.35.
In turn, `O=C(NCC1CCN(Cc2ccccc2)CC1O)c1cc(Cl)cc2c1OCCO2` (centres unmarked) [Compound 77] gave a pA2 of 9.19.
`O=C(NCC1CCN(CCCO)CC1O)c1cc(Cl)cc2c1OCCO2` (centres unmarked) [Compound 68] registered a pA2 of 9.04. The pA2 values of the last two molecules are within 0.2 log units of each other.
The molecule `COC1CN(CCCC(C)=O)CCC1CNC(=O)c1cc(Cl)cc2c1OCCCO2.O=C(O)C(=O)O` (centres unmarked) [Compound 135] showed a pA2 of 8.1.
`O=C(CN1CCC(CNC(=O)c2cc(Cl)cc3c2OCCO3)C(O)C1)c1ccccc1.O=C(O)C(=O)O` (centres unmarked) [Compound 78] had a pA2 of 8.44.
Turning to `CCCCN1CCC(CNC(=O)c2cc(Cl)cc3c2OCCO3)C(O)C1.O=C(O)C(=O)O` (centres unmarked) [Compound 63], the pA2 amounted to 9.49.
In turn, `CCCCN1CCC(CNC(=O)c2cc(Cl)cc3c2OCC3)C(O)C1` (centres unmarked) [Compound 1] came in with a pA2 of 8.53.
`COCCCN1CCC(CNC(=O)c2cc(Cl)cc3c2OCCCO3)C(O)C1` (centres unmarked) [Compound 120] yielded a pA2 of 9.72.
For `CS(=O)(=O)CCCN1CCC(O)(CNC(=O)c2cc(Cl)cc3c2OCCCO3)CC1.O` [Compound 169], the pA2 is under 8.
Molecule `COCCCN1CCC(CNC(=O)c2cc(Cl)cc3c2OCCCO3)C(OC)C1.O=C(O)C(=O)O` (centres unmarked) [Compound 129] showed a pA2 of over 8.
Regarding `COCCCN1CC[C@@H](CNC(=O)c2cc(Cl)cc3c2OCCO3)[C@H](O)C1` (racemic) [Compound 67, (±)-(trans)-7-chloro-2,3-dihydro-N-[[3-hydroxy-1-(3-methoxy-propyl)-4-piperidinyl]methyl]-1,4-benzodioxin-5-carboxamide], the Kb is 0.372 nM.
`COCCCN1CCC(O)(CNC(=O)c2cc(Cl)cc3c2OCCCO3)CC1.O=C(O)C(=O)O` [Compound 168] gave a pA2 of under 8.
In turn, `O=C(NCC1CCN(CCCO)CC1O)c1cc(Cl)cc2c1OCCCO2` (centres unmarked) [Compound 144] registered a pA2 of 10.4.
Molecule `COC1CN(Cc2ccccc2)CCC1CNC(=O)c1cc(Cl)cc2c1OCCO2` (centres unmarked) [Compound 89] came in with a pA2 of under 8.
On the same count and under the same terms, for `COCCCN1CCC(O)(CNC(=O)c2cc(Cl)cc3c2OCCO3)CC1.O=C(O)C(=O)O` [Compound 101] the value was under 7; for `O=C(CN1CCC(CNC(=O)c2cc(Cl)cc3c2OCC3)C(O)C1)c1ccccc1` (centres unmarked) [Compound 15], 8.4; for `Cl.O=C(O)CCCN1CCC(CNC(=O)c2cc(Cl)cc3c2OCCCO3)C(O)C1` (centres unmarked) [Compound 146], 9.1.
Molecule `CCCCN1CCC(CNC(=O)c2cc(Cl)cc3c2OCC3)C(O)C1` (centres unmarked) [Compound 2] registered a pA2 of 10.5.
Turning to `CC(=O)CCCN1CC[C@@H](CNC(=O)c2cc(Cl)cc3c2OCCO3)[C@H](O)C1` (racemic) [Compound 65, (±)-(trans)-7-chloro-2,3 dihydro-N-[[3-hydroxy-1-(4-oxopentyl)-4-piperidinyl]methyl]-1,4-benzodioxin-5-carboxamide], the Kb is 0.363 nM.

These data come from US7205410B2, “4-(aminomethyl)-piperidine benzamides for treating gastrointestinal disorders” (Janssen Pharmaceutica, N.V., priority 1998, dated 2007).
